Like-named read-outs stand apart in the source and are kept apart here.
Test system: vascular structures in the dorsal window chamber
Assay type: in vivo, mice of strain C3H
Settings: MRV6401 0.05 mg/kg i.v., red 660 nm-680 nm
Source text: Male mice of strain C3H (sourced from The Jackson Laboratory, 600 Main Street, Bar Harbor, Me. 04609, USA) weighing between 28-30 grams were surgically implanted with titanium back-pack window chambers in a similar manner to that described in Example 2. A chamber was considered suitable for subsequent studies if microscopic examination of the preparation met the same criteria as those described in Example 2. The intra-vital microscopic studies were undertaken on unsedated animals held in the same Plexiglass tube assembly as that described in Example 2. The intra-vital microscopy was also performed using the same Leitz Dialux 22 microscope fitted with the same objective lenses, and mercury lamp trans- and epi-illumination sources. However, for the studies described in Example 3, the irradiation source was not a DD4 laser, but rather, activation of the photosensitizers was undertaken using narrow band filtered light from the mercury lamp epi-illumination source. Two different wavelength bands were used to activate the photosensitizers, namely green or red light (see Table 5 below). These wavelengths were obtained by use of filter cubes placed in a Leitz Ploemopak illumination system (NcBain Instruments, Inc., 9601 […] Avenue, Chatsworth, Calif., 91311, USA) fitted to the Leitz Dialux 22 microscope. For activation using green light epi-illumination (530 nm-560 nm) the BP 530-560 band pass excitation filter of the Leitz Ploemopak N2 cube (Cat. No. 513-609, E. Leitz Inc., Rockleigh, N.J., 07647, USA) was used. For activation using red light epi-illumination (660 nm-680 nm) a 670DF20 band pass filter (Cat. No., XF1028, Omega Optical Co., Brattleboro, Vt., 05302, USA) fitted in a Leitz Ploemopak cube was used. In all cases, the activation of the photosensitizer was performed in a defined region that was smaller than the total field of tissue contained within the window chamber. The total mouse dorsal tissue contained within the window chambers was a circle of 1.0 cm diameter, corresponding to a total area of approximately 0.785 cm^2. The illumination field of the activating light was a circle of 0.225 cm diameter, corresponding to a total area of approximately 0.040 cm^2. Thus, approximately 5% of the total area of the chamber was directly illuminated. Mice bearing a dorsal window chamber were placed in the Plexiglass restrainer on the microscope stage for pre-treatment evaluation of the vascular structures. Prior to photosensitizer administration, the architecture of the vascular structures in the entire window chamber in all mice was examined using 410 nm filtered blue light from the mercury trans-illumination source of the intra-vital microscope, and the images which were generated were recorded on video tape for subsequent evaluation. The methods for imaging and recording were as described in Example 2. Briefly, the imaging source was a […] mercury arc lamp (Type 307-143.004 from Ernst Leitz Wetzlar GmBH, Germany) which was powered by an HBO 100 power supply (LEP Ltd., Scarsdale, N.Y.). The output from this source was filtered using a #H43157 interference filter (Edmund Scientific, 101 East Gloucester Pike, Barrington, N.J., 08007-1380), to produce a beam of 410 nm light. Typically, the power density of the imaging light was less than 0.6 […]^2. Two or three fields in each chamber were designated as fields of interest and their location recorded for post-treatment evaluation. These fields were chosen such that they were not adjacent to each other, and one of these fields was chosen so that it was within the region of the chamber that was to receive the activating light illumination. Following identification, recording and designation of the fields of interest, mice were injected with either the photosensitizer […] Medical Technologies, 336 Bollay Drive, Santa Barbara, Calif., 93117) formulated in egg yolk phospholipid ([…] Polar Lipids, Inc., 700 Industrial Park Avenue, Alabaster, Ala., 35007), the photosensitizer […]

[1] = animal #10, 12 J/cm^2, probe 6 min post light irradiation
[2] = animal #13, 8 J/cm^2, probe administered 24 hr post light irradiation

C=Cc1c(C)c2[n]3c1=CC1=NC(=Cc4c(C)c5c([n]4[In]3[Cl])C(=C3N=C(C=2)[C@@H](C)[C@@H]3CCC(=O)OC)CC5=O)C(CC)=C1C [MV6401, indium methyl pyropheophorbide]
TRITC-Dextran in tissue and cells in regions outside the treatment field at 24 hr time point (animal #8, 12 J/cm^2, 155 kD probe 10 min post light irradiation): no significant fluorescence from TRITC-Dextran | Leakage of 155 kD TRITC-Dextran in the treatment field at 24 hr time point (animal #8, 12 J/cm^2, probe 10 min post light irradiation): significant leakage in region 2 | Leakage of secondary probe 150 kD FITC-Dextran from vessels in the treatment field, 20 min post probe (animal #8, 12 J/cm^2, probe administered 24 hr post light irradiation): leakage of FITC from vessels in the treated region 2 | Leakage of secondary probe 150 kD FITC-Dextran from vessels outside the treatment field, 20 min post probe (animal #8, 12 J/cm^2, probe administered 24 hr post light irradiation, 0.05 mg/kg): some minimal leakage from the vessels in region 1 | 150 kD FITC-Dextran in tissue and cells surrounding vessels (regions 1 treated and 3) at 24 hr (animal #10, 12 J/cm^2): pattern was apparent at the 2 hr time point, and at the 24 hr time point there was FITC-Dextran present at high levels | Leakage of 150 kD FITC-Dextran from the treated vessels at 1 hr post probe administration [1]: with significant leakage apparent | Leakage of 150 kD FITC-Dextran from vessels outside the treatment field at 1 hr post probe administration [1]: from the treated vessels in region 1, some minor leakage from vessels in region 3 and no leakage from vessels in region | 2,000 kD FITC-Dextran leakage in tissue and cells outside the treatment field at 24 hr (animal #11, 12 J/cm^2): FITC-Dextran uptake in tissues and cells in this region. The tissue and cells in regions 2 and 3 showed some minor | Leakage of 2,000 kD FITC-Dextran from vessels outside the treatment field at 1 hr (animal #11, 12 J/cm^2, probe 19 min post light irradiation): no leakage from vessels in regions 2 and 3 | Leakage of 2,000 kD FITC-Dextran from vessels outside the treatment field at 1 hr (animal #12, 8 J/cm^2, probe 3 min post light irradiation): no leakage from vessels in regions 2 and 3 | Leakage of secondary probe 155 kD TRITC-Dextran from vessels in the treatment field (animal #12, 8 J/cm^2, probe administered 24 hr post light irradiation): significant on-going leakage from vessels in region 1 | Leakage of secondary probe 2,000 kD FITC-Dextran from vessels in the treatment field [2]: significant on-going leakage from vessels in region 1 | Leakage of secondary probe 2,000 kD FITC-Dextran from vessels outside the treatment field [2]: no evidence of on-going leakage

From patent US20040044304A1, “Local drug delivery using photosensitizer-mediated and electromagnetic radiation enhanced vascular permeability” (priority 2002, published 2004)
